Data reported in patent US9512107B2, “Therapeutically active compositions and their methods of use” (Agios Pharmaceuticals, Inc., priority 2012, dated 2016).
Where a chain is given by its changes, count along the chain named.

Assays:
[1] = target: T1, IDH2 R172K (Homo sapiens, UniProt P48735, R172K); test: IDH2 R172K enzymatic assay (NADPH cofactor depletion, diaphorase/resazurin readout); type: biochemical; details: read-out: Enz R172K
T1 sequence (P48735 40-452 R172K): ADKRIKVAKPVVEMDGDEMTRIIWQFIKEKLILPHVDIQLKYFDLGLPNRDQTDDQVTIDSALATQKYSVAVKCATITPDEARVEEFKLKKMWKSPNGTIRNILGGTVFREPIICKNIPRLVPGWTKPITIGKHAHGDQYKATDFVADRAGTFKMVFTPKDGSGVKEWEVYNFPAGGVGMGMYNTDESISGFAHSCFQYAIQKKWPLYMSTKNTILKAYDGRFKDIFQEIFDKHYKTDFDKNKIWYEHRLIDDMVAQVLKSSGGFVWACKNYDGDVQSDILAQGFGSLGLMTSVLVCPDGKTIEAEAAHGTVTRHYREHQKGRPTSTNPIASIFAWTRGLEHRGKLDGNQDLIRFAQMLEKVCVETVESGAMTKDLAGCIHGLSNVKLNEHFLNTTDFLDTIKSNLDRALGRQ
Method in brief: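 Residual NADPH is read out as resorufin fluorescence after quenching with 36 μg/ml diaphorase and 60 μM resazurin in stop mix. The stop follows a 1 h room-temperature reaction started by a substrate mix of NADPH (50 μM) and α-KG (6.3 mM), with compound preincubated with enzyme for 1 h beforehand.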

[2] = target: T2, IDH2 R140Q (Homo sapiens, UniProt P48735, R140Q); test: IDH2 R140Q enzymatic assay (cofactor depletion, similar format); type: biochemical; details: read-out: Enz R140Q
T2 sequence (P48735 40-452 R140Q): T1 sequence (P48735 40-452 R172K) with R101Q, K133R

[3] = test system: U87MG pLVX-IDH2 R140Q-neo cells; test: U87MG pLVX-IDH2 R140Q-neo cell based assay, 2-HG in media by LC-MS at 48 hours; details: Homo sapiens, U-87 MG
Method in brief: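 2-HG secreted into the medium was measured by LC-MS after 48 h of compound treatment (0.2% DMSO final) of U87MG pLVX-IDH2 R140Q-neo cells in DMEM/10% FBS. The same wells were assayed at 72 h by CellTiter-Glo luminescence for effects on growth.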

SMILES | IC50 [1] [nM] | IC50 [2] [nM] | IC50 [3] [nM]
FC(F)(F)c1cc(Nc2nc(NC3C4COCC43)nc(-c3cccc(C(F)(F)F)n3)n2)ccn1 (stereo not drawn) [Compound 504, N-(3-Oxa-bicyclo[3.1.0]hex-6-yl)-N′-(2-trifluoromethyl-pyridin-4-yl)-6-(6-trifluoromethyl-pyridin-2-yl)-[1,3,5]triazine-2,4-diamine] | < 100 | 100 to 1000 | < 100
N#Cc1cc(Nc2nc(NC3C4COCC43)nc(-c3cccc(C(F)(F)F)n3)n2)ccn1 (stereo not drawn) [Compound 505, 4-[4-(3-Oxa-bicyclo[3.1.0]hex-6-ylamino)-6-(6-trifluoromethyl-pyridin-2-yl)-[1,3,5]triazin-2-ylamino]-pyridine-2-carbonitrile] | 100 to 1000 | 100 to 1000 | < 100
Fc1cncc(Nc2nc(NC3C4COCC43)nc(-c3cccc(Cl)n3)n2)c1 (stereo not drawn) [Compound 511, 6-(6-Chloro-pyridin-2-yl)-N-(5-fluoro-pyridin-3-yl)-N′-(3-oxa-bicyclo[3.1.0]hex-6-yl)-[1,3,5]triazine-2,4-diamine] | 100 to 1000 | 100 to 1000 | < 100
Fc1ccc(Nc2nc(NC3C4COCC43)nc(-c3cccc(Cl)n3)n2)cn1 (stereo not drawn) [Compound 512, 6-(6-Chloro-pyridin-2-yl)-N-(6-fluoro-pyridin-3-yl)-N′-(3-oxa-bicyclo[3.1.0]hex-6-yl)-[1,3,5]triazine-2,4-diamine] | 100 to 1000 | 100 to 1000 | < 100
CC(C)Nc1nc(Nc2ccnc(C(C)(F)F)c2)nc(-c2cccc(Cl)n2)n1 [Compound 513, 6-(6-Chloro-pyridin-2-yl)-N-[2-(1,1-difluoro-ethyl)-pyridin-4-yl]-N′-isopropyl-[1,3,5]triazine-2,4-diamine] | 100 to 1000 | 1000 to 10000 | < 100
CC(C)Nc1nc(Nc2ccnc(C(C)(C)O)c2)nc(-c2cccc(Cl)n2)n1 [Compound 514, 2-{4-[4-(6-Chloro-pyridin-2-yl)-6-isopropylamino-[1,3,5]triazin-2-ylamino]-pyridin-2-yl}-propan-2-ol] | < 100 | 100 to 1000 | < 100
CC1CC1Nc1nc(Nc2ccnc(C(F)(F)F)c2)nc(-c2ccccn2)n1 (stereo not drawn) [Compound 516, N-(2-Methyl-cyclopropyl)-6-pyridin-2-yl-N′-(2-trifluoromethyl-pyridin-4-yl)-[1,3,5]triazine-2,4-diamine] | < 100 | 100 to 1000 | < 100
CC(C)Nc1nc(Nc2cccc(S(=O)(=O)NCC(F)(F)F)c2)nc(-c2cccc(Cl)n2)n1 [Compound 518, 3-[4-(6-Chloro-pyridin-2-yl)-6-isopropylamino-[1,3,5]triazin-2-ylamino]-N-(2,2,2-trifluoro-ethyl)-benzenesulfonamide] | < 100 | 100 to 1000 | < 100
CC(C)Nc1nc(Nc2cccc(S(=O)(=O)NCC(F)(F)F)c2)nc(-c2cccc(C(F)(F)F)n2)n1 [Compound 519] | 100 to 1000 | 100 to 1000 | < 100
CC(C)Nc1nc(Nc2ccnc(C(F)(F)F)c2)nc(-c2nccc(C(F)(F)F)n2)n1 [Compound 522, N2-isopropyl-N4-(2-(trifluoromethyl)pyridin-4-yl)-6-(4-(trifluoromethyl)pyrimidin-2-yl)-1,3,5-triazine-2,4-diamine] | 100 to 1000 | 100 to 1000 | < 100
FC(F)(F)c1cc(Nc2nc(NC3CCOC3)nc(-c3cccc(C(F)(F)F)n3)n2)ccn1 (stereo not drawn) [Compound 529, N-(Tetrahydro-furan-3-yl)-N′-(2-trifluoromethyl-pyridin-4-yl)-6-(6-trifluoromethyl-pyridin-2-yl)-[1,3,5]triazine-2,4-diamine] | < 100 | 100 to 1000 | < 100

More lines, now with the values ahead:

IC50 [1] [nM] | IC50 [2] [nM] | IC50 [3] [nM] | SMILES
< 100 | 100 to 1000 | < 100 | CC(C)(C)CNc1nc(Nc2ccnc(C(F)(F)F)c2)nc(-c2ccccn2)n1 [Compound 517, N-(2,2-Dimethyl-propyl)-6-pyridin-2-yl-N′-(2-trifluoromethyl-pyridin-4-yl)-[1,3,5]triazine-2,4-diamine]
< 100 | 100 to 1000 | < 100 | CC(C)(C)CNc1nc(Nc2cncnc2)nc(-c2cccc(C(F)(F)F)n2)n1 [Compound 521, N-(2,2-Dimethyl-propyl)-N′-pyrimidin-5-yl-6-(6-trifluoromethyl-pyridin-2-yl)-[1,3,5]triazine-2,4-diamine]
< 100 | 100 to 1000 | < 100 | CC(C)(C)CNc1nc(Nc2ccnc(C(F)(F)F)c2)nc(-c2nccc(C(F)(F)F)n2)n1 [Compound 523, N2-neopentyl-N4-(2-(trifluoromethyl)pyridin-4-yl)-6-(4-(trifluoromethyl)pyrimidin-2-yl)-1,3,5-triazine-2,4-diamine]
< 100 | 100 to 1000 | < 100 | COC(C)CNc1nc(Nc2ccnc(C(F)(F)F)c2)nc(-c2cccc(C(F)(F)F)n2)n1 (stereo not drawn) [Compound 524, N-(2-Methoxy-propyl)-6-(6-trifluoromethyl-pyridin-2-yl)-N′-(2-trifluoromethyl-pyridin-4-yl)-[1,3,5]triazine-2,4-diamine]
< 100 | 100 to 1000 | < 100 | CC(CO)Nc1nc(Nc2ccnc(C(F)(F)F)c2)nc(-c2cccc(C(F)(F)F)n2)n1 (stereo not drawn) [Compound 527, 2-[4-(6-Trifluoromethyl-pyridin-2-yl)-6-(2-trifluoromethyl-pyridin-4-ylamino)-[1,3,5]triazin-2-ylamino]-propan-1-ol]
100 to 1000 | 100 to 1000 | < 100 | COCCCNc1nc(Nc2ccnc(C(F)(F)F)c2)nc(-c2cccc(C(F)(F)F)n2)n1 [Compound 528, N-(3-Methoxy-propyl)-N′-(2-trifluoromethyl-pyridin-4-yl)-6-(6-trifluoromethyl-pyridin-2-yl)-[1,3,5]triazine-2,4-diamine]
100 to 1000 | 100 to 1000 | < 100 | CC(C)(CO)CNc1nc(Nc2ccnc(C(F)(F)F)c2)nc(-c2cccc(C(F)(F)F)n2)n1 [Compound 530, 2,2-Dimethyl-3-[4-(6-trifluoromethyl-pyridin-2-yl)-6-(2-trifluoromethyl-pyridin-4-ylamino)-[1,3,5]triazin-2-ylamino]-propan-1-ol]
< 100 | 100 to 1000 | < 100 | CC1(CNc2nc(Nc3ccnc(C(F)(F)F)c3)nc(-c3cccc(C(F)(F)F)n3)n2)CCCO1 (stereo not drawn) [Compound 531, N-(2-Methyl-tetrahydro-furan-2-ylmethyl)-6-(6-trifluoromethyl-pyridin-2-yl)-N′-(2-trifluoromethyl-pyridin-4-yl)-[1,3,5]triazine-2,4-diamine]
< 100 | 100 to 1000 | < 100 | CC1CC1Nc1nc(Nc2ccnc(C(F)(F)F)c2)nc(-c2cccc(C(F)(F)F)n2)n1 (stereo not drawn) [Compound 532, N-(2-Methyl-cyclopropyl)-6-(6-trifluoromethyl-pyridin-2-yl)-N′-(2-trifluoromethyl-pyridin-4-yl)-[1,3,5]triazine-2,4-diamine]
< 100 | 100 to 1000 | < 100 | CC1(Nc2nc(Nc3ccnc(C(F)(F)F)c3)nc(-c3cccc(C(F)(F)F)n3)n2)CC1 [Compound 533, N-(1-Methyl-cyclopropyl)-6-(6-trifluoromethyl-pyridin-2-yl)-N′-(2-trifluoromethyl-pyridin-4-yl)-[1,3,5]triazine-2,4-diamine]
